Results: US20140135310A1, “SULPHONAMIDE DERIVATIVES OF ALICYCLIC AMINES FOR THE TREATMENT OF CENTRAL NERVOUS SYSTEM DISEASES” (Adamed Sp. z o.o., priority 2011, published 2014)

What was measured:
5-HT2A receptor = molecular target: T1, 5-HT2A receptor (Homo sapiens, UniProt P28223); assay: Radioligand binding assay, serotoninergic 5-HT2A receptors; conditions: for inhibition at 1 µM: binding assay result in %, Table 5a; for Ki: read-out: Inhibition constants Ki, 5-HT2A
T1 construct: purchased PerkinElmer
How it was run: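 Radioligand competition binding with scintillation counting; nonspecific binding defined by excess unlabelled ligand. Data as percent inhibition of control specific binding. IC50 by Hill-equation fit of competition curves; Ki by Cheng-Prusoff, with radioligand Kd from Scatchard plot.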

[1] = molecular target: T2, serotonin transporter (SERT) (Homo sapiens, UniProt P31645); assay: Radioligand binding assay, serotonin transporter (SERT); conditions: for inhibition at 1 µM: binding assay, test compound 1×10^−6 M
T2 construct: expressed in transfected cells; host or cells: CHO cells
How it was run: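 Radioligand competition binding with scintillation detection; specific binding is total minus binding under excess unlabelled ligand. Reported as % of control specific binding or % inhibition; IC50 from Hill-equation non-linear regression of competition curves, and Ki via Cheng-Prusoff using radioligand concentration and Scatchard-derived KD.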

σ receptors = assay: Radioligand binding assay, σ receptors; conditions: rat cerebral cortex, [3H]DTG 8 nM
Source text: (§1) The specific ligand binding to the receptors is defined as the difference between the total binding and the non-specific binding determined in the presence of the excess of unlabelled ligand.
The results are expressed as a percent of control specific binding ((measured specific binding/control specific binding)×100) and as a percent inhibition of control specific binding (100−((measured specific binding/control specific binding)×100)) obtained in the presence of the test compounds. The specific ligand binding to the receptors is defined as the difference between the total binding and the nonspecific binding determined in the presence of an excess of unlabelled ligand. Scintillation counting was the method of detection of ligand binding. The IC50 values (concentration causing a half-maximal inhibition of control specific binding) were determined by non-linear regression analysis of the competition curves generated with mean replicate values using Hill equation curve fitting (Y=D+[(A−D)/(1+(C/C50)nH)], where Y=specific binding, D=minimum specific binding, A=maximum specific binding, C=compound concentration, C50=IC50, and nH=slope factor). […] The inhibition constants (Ki) were calculated using the Cheng Prusoff equation (Ki=IC50/(1+(L/KD)), where L=concentration of radioligand in the assay, and KD=affinity of the radioligand for the receptor). A scatchard plot was used to determine the Kd.

α2C adrenergic receptors = molecular target: T3, α2C adrenergic receptors (Homo sapiens, UniProt P18825); assay: Radioligand binding assay, adrenergic α2C receptors; conditions: test compound 1×10^−6 M
T3 construct: expressed in transfected cells; host or cells: CHO cells
T3 sequence (P18825 1-462): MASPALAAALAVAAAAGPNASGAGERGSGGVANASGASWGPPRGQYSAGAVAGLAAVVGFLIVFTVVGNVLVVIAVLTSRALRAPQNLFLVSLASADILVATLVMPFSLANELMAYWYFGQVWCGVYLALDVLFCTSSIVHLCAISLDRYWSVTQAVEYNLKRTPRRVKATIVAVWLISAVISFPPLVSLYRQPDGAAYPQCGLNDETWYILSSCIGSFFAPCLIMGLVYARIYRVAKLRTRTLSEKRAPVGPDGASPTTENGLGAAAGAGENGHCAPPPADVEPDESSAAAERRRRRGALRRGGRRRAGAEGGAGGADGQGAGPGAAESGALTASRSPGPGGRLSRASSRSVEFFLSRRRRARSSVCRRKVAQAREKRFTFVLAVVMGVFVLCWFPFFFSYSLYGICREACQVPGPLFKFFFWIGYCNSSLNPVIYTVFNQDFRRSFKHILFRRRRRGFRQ
Source text: as §1
(§2) The results are expressed as a percent of control specific binding ((measured specific binding/control specific binding)×100) and as a percent inhibition of control specific binding (100−((measured specific binding/control specific binding)×100)) obtained in the presence of the test compounds. The specific ligand binding to the receptors is defined as the difference between the total binding and the nonspecific binding determined in the presence of an excess of unlabelled ligand. Scintillation counting was the method of detection of ligand binding. The IC50 values (concentration causing a half-maximal inhibition of control specific binding) were determined by non-linear regression analysis of the competition curves generated with mean replicate values using Hill equation curve fitting (Y=D+[(A−D)/(1+(C/C50)nH)], where Y=specific binding, D=minimum specific binding, A=maximum specific binding, C=compound concentration, C50=IC50, and nH=slope factor). This analysis was performed using a software developed at Cerep (Hill software) and validated by comparison with data generated by the commercial software SigmaPlot® 4.0 for Windows® (© 1997 by SPSS Inc.). The inhibition constants (Ki) were calculated using the Cheng Prusoff equation (Ki=IC50/(1+(L/KD)), where L=concentration of radioligand in the assay, and KD=affinity of the radioligand for the receptor). A scatchard plot was used to determine the Kd.
Experimental conditions for tests are given in Table 7, and results of tests for representative compounds are given in Tables 8 (α1 receptors) and in Tables 9 (α2C receptors).

5-HT7 receptor = molecular target: T4, 5-HT7 receptor (Homo sapiens, UniProt P34969); assay: Radioligand binding assay, serotoninergic 5-HT7 receptors; conditions: binding assay result in %, Table 5a
T4 construct: purchased PerkinElmer
How it was run: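 Competition binding at human 5-HT7 receptors with a radioligand, detected by scintillation counting; non-specific binding was defined with excess unlabelled ligand. IC50 came from Hill-equation fits of competition curves, and Ki from Cheng–Prusoff using radioligand concentration and Scatchard-derived KD.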

receptors D4.4 = molecular target: T5, receptors D4.4 (Homo sapiens, UniProt P21917); assay: Radioligand binding assay, dopaminergic D4 (D4.4) receptors; conditions: test compound 1×10^−6 M
T5 sequence (P21917 1-419): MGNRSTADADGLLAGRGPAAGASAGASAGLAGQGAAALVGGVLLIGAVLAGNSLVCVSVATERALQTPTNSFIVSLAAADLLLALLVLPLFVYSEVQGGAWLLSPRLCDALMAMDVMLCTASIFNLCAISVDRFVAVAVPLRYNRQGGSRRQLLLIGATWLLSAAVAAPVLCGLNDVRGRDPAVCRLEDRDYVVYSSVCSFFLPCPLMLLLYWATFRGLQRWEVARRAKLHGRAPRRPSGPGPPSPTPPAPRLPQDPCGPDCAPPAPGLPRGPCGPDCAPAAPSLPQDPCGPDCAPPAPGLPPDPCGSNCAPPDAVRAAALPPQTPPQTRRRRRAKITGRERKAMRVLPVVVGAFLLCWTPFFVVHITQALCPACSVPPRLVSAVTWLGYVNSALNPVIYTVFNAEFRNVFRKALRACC
Source text: as §1, §2
Experimental conditions for tests are given in Table 1, the results of tests for representative compounds are given in Tables 2a and 2b (receptors D2 and D3) and in Table 3 (receptors D4).

[2] = molecular target: dopaminergic receptors D2 (Homo sapiens, UniProt P14416); assay: Radioligand binding assay, dopaminergic D2 receptors; conditions: for inhibition at 1 µM: binding assay, test compound 1×10^−6 M; for Ki: read-out: Inhibition constants Ki for D2 receptors, D2
How it was run: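 Competition radioligand binding at human D2, D3 and D4.4 receptors, detected by scintillation counting; nonspecific binding defined with excess unlabelled ligand. Results as percent inhibition of control specific binding; IC50 by Hill-equation nonlinear regression; Ki via Cheng-Prusoff, with radioligand KD from Scatchard plot.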

[3] = molecular target: T6, H1 histaminergic receptors (Homo sapiens, UniProt P35367); assay: Radioligand binding assay, histaminergic H1 receptors; conditions: human recombinant (HEK-293 cells), [3H]pyrilamine 1 nM
T6 construct: expressed in transfected cells; host or cells: HEK-293 cells
Source text: as §1, §2
Experimental conditions for tests are given in Table 14, and results of tests for representative compounds are presented in Table 15.

T2 sequence (P31645 whole entry): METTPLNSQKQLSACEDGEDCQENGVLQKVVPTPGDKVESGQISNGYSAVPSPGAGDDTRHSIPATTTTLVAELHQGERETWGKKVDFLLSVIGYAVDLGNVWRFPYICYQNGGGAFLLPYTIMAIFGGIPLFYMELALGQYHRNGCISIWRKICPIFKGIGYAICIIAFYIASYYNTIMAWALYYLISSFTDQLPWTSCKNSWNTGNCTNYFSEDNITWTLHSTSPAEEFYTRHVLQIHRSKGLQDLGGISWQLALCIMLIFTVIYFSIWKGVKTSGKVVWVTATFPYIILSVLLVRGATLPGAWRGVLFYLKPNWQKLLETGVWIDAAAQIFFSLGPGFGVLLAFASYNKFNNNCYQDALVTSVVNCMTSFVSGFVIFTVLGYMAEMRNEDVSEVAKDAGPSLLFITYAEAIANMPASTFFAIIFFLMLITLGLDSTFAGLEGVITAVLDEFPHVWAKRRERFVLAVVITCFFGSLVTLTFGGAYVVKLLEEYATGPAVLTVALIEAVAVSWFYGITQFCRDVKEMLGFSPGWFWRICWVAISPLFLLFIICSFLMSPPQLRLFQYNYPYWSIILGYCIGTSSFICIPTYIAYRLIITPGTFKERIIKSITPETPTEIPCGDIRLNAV
T6 sequence (P35367 whole entry): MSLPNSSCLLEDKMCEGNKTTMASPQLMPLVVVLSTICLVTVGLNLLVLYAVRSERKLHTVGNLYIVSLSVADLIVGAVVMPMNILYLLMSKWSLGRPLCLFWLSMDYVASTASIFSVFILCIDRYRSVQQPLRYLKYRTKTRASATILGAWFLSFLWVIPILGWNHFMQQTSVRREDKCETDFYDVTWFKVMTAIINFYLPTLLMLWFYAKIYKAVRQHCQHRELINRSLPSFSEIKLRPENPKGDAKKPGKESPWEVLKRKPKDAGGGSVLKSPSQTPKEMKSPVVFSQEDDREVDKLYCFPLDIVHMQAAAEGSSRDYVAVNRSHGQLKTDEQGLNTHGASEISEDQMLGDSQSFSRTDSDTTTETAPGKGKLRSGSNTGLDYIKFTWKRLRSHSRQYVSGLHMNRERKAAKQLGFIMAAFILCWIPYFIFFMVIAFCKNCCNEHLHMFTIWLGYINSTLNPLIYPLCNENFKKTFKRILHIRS
dopaminergic receptors D2, sequence (P14416 whole entry): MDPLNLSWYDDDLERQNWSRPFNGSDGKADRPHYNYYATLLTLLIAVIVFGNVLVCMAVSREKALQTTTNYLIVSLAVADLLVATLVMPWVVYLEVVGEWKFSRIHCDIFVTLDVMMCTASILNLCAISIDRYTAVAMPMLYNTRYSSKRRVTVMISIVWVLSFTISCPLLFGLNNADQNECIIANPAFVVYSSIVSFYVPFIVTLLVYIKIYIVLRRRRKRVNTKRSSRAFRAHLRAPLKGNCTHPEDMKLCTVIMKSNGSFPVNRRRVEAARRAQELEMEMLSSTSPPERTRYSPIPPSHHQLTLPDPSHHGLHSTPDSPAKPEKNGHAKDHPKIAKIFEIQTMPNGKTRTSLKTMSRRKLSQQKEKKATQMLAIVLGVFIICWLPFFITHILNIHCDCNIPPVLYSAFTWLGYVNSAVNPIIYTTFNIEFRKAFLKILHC
T4 sequence (P34969 whole entry): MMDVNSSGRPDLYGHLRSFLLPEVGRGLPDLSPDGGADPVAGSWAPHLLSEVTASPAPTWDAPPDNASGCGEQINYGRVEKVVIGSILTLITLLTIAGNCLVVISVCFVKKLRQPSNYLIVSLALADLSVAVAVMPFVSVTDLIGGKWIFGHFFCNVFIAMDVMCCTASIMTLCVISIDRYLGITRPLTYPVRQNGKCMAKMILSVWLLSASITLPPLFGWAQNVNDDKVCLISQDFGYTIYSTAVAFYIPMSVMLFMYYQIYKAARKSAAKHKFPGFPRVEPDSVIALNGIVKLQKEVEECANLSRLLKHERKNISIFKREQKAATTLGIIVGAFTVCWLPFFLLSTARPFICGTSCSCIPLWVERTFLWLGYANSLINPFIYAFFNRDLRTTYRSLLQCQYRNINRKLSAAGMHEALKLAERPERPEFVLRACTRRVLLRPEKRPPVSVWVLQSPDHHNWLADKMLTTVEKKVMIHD
T1 sequence (P28223 whole entry): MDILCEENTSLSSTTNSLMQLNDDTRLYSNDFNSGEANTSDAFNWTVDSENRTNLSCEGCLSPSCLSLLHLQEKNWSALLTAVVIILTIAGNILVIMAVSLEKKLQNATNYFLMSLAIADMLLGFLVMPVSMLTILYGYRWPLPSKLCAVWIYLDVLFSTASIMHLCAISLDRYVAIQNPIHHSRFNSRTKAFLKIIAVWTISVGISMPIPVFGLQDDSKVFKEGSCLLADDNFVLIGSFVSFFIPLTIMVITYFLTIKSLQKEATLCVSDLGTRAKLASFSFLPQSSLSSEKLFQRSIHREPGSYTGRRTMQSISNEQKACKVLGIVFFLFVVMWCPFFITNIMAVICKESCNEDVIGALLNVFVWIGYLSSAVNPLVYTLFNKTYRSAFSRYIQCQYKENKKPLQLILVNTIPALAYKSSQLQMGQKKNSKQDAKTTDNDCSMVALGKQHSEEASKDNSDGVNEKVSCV

O=S(=O)(NC1CCN(CCCc2c[nH]c3ccc(F)cc23)C1)c1ccc2ccccc2c1 (centres unmarked) [Compound 80, N-[1-[3-(5-Fluoro-1H-indol-3-yl)propyl]pyrrolidin-3-yl]naphthalene-2-sulphonamide]
inhibition at 1 µM (5-HT2A receptor): 100% | inhibition at 1 µM [1]: 104% | Ki ([1]; read-out: Inhibition constants Ki for SERT, SERT): 0.5 nM | σ [%] (σ receptors): 81% | inhibition at 1 µM (α2C adrenergic receptors): 88% | inhibition at 1 µM (5-HT7 receptor): 93% | inhibition at 1 µM (receptors D4.4): 91% | inhibition at 1 µM [2]: 96%

O=S(=O)(NCC1CCN(CCCc2noc3cc(F)ccc23)C1)c1cccc2ccccc12 (centres unmarked) [Compound 239, N-[[1-[3-(6-Fluoro-1,2-benzoxazol-3-yl)propyl]pyrrolidin-3-yl]methyl]naphthalene-1-sulphonamide]
inhibition at 1 µM (5-HT2A receptor): 98% | inhibition at 1 µM [1]: 36% | σ [%] (σ receptors): 97% | inhibition at 1 µM (α2C adrenergic receptors): 89% | inhibition at 1 µM (5-HT7 receptor): 92% | inhibition at 1 µM (receptors D4.4): 78% | inhibition at 1 µM [2]: 96%

O=S(=O)(NCC1CCN(CCOc2cccc3c2OCCO3)C1)c1cccc(O)c1 (centres unmarked) [Compound 303, N-[[1-[2-(2,3-Dihydro-1,4-benzodioxin-5-yloxy)ethyl]pyrrolidin-3-yl]-methyl]-3-hydroxy-benzenesulphonamide]
inhibition at 1 µM (5-HT2A receptor): 96% | inhibition at 1 µM [1]: 73% | inhibition at 1 µM (α2C adrenergic receptors): 100% | inhibition at 1 µM (5-HT7 receptor): 98% | inhibition at 1 µM (receptors D4.4): 39% | inhibition at 1 µM [2]: 79% | inhibition at 1 µM [3]: 68%

O=S(=O)(N[C@H]1CCN(CCCc2noc3cc(F)ccc23)C1)c1ccc2cc(Cl)ccc2c1 [Compound 201, 6-Chloro-N-[(3S)-1-[3-(6-fluoro-1,2-benzoxazol-3-yl)propyl]pyrrolidin-3-yl]naphthalene-2-sulphonamide]
inhibition at 1 µM (5-HT2A receptor): 98% | Ki (5-HT2A receptor): 7 nM | inhibition at 1 µM [1]: 59% | inhibition at 1 µM (α2C adrenergic receptors): 89% | inhibition at 1 µM (5-HT7 receptor): 95% | inhibition at 1 µM (receptors D4.4): 50% | inhibition at 1 µM [2]: 99% | Ki [2]: 15 nM | inhibition at 1 µM [3]: 64%

O=S(=O)(N[C@H]1CCN(CCCc2noc3cc(F)ccc23)C1)c1ccc2ccccc2c1 [Compound 207, N-[(3S)-1-[3-(6-Fluoro-1,2-benzoxazol-3-yl)propyl]pyrrolidin-3-yl]-naphthalene-2-sulphonamide]
inhibition at 1 µM (5-HT2A receptor): 100% | Ki (5-HT2A receptor): 0.5 nM | inhibition at 1 µM [1]: 58% | inhibition at 1 µM (α2C adrenergic receptors): 90% | inhibition at 1 µM (5-HT7 receptor): 99% | inhibition at 1 µM (receptors D4.4): 85% | inhibition at 1 µM [2]: 101% | Ki [2]: 3.8 nM | inhibition at 1 µM [3]: 65%

O=S(=O)(NCC1CCN(CCOc2cccc3c2OCCO3)C1)c1cccc(F)c1 (centres unmarked) [Compound 298, N-[[1-[2-(2,3-Dihydro-1,4-benzodioxin-5-yloxy)ethyl]pyrrolidin-3-yl]-methyl]-3-fluoro-benzenesulphonamide]
inhibition at 1 µM (5-HT2A receptor): 88% | inhibition at 1 µM [1]: 72% | inhibition at 1 µM (α2C adrenergic receptors): 94% | inhibition at 1 µM (5-HT7 receptor): 93% | inhibition at 1 µM (receptors D4.4): 48% | inhibition at 1 µM [2]: 52% | inhibition at 1 µM [3]: 40%

O=S(=O)(NCC1CCN(CCOc2cccc3c2OCCO3)C1)c1ccc(F)cc1 (centres unmarked) [Compound 300, N-[[1-[2-(2,3-Dihydro-1,4-benzodioxin-5-yloxy)ethyl]pyrrolidin-3-yl]-methyl]-4-fluoro-benzenesulphonamide]
inhibition at 1 µM (5-HT2A receptor): 72% | inhibition at 1 µM [1]: 64% | inhibition at 1 µM (α2C adrenergic receptors): 92% | inhibition at 1 µM (5-HT7 receptor): 90% | inhibition at 1 µM (receptors D4.4): 52% | inhibition at 1 µM [2]: 35% | inhibition at 1 µM [3]: 28%

COc1cccc(S(=O)(=O)NCC2CN(CCCc3noc4cc(F)ccc34)C2)c1 [Compound 143, N-[[1-[3-(6-Fluoro-1,2-benzoxazol-3-yl)propyl]azetidin-3-yl]methyl]-3-methoxy-benzenesulphonamide]
inhibition at 1 µM (5-HT2A receptor): 94% | inhibition at 1 µM [1]: 6% | inhibition at 1 µM (α2C adrenergic receptors): 78% | inhibition at 1 µM (5-HT7 receptor): 87% | inhibition at 1 µM (receptors D4.4): 80% | inhibition at 1 µM [2]: 80% | inhibition at 1 µM [3]: 36%

O=S(=O)(NC1CCN(CCCc2noc3cc(F)ccc23)C1)c1cc2ccc(F)cc2s1 (centres unmarked) [Compound 234, 6-Fluoro-N-[1-[3-(6-fluoro-1,2-benzoxazol-3-yl)propyl]pyrrolidin-3-yl]benzothiophene-2-sulphonamide]
inhibition at 1 µM (5-HT2A receptor): 100% | inhibition at 1 µM [1]: 65% | inhibition at 1 µM (α2C adrenergic receptors): 90% | inhibition at 1 µM (5-HT7 receptor): 97% | inhibition at 1 µM (receptors D4.4): 70% | inhibition at 1 µM [2]: 99% | inhibition at 1 µM [3]: 75%

Cc1ccc2sc(S(=O)(=O)N[C@H]3CCN(CCCc4noc5cc(F)ccc45)C3)cc2c1 [Compound 229, N-[(3S)-1-[3-(6-Fluoro-1,2-benzoxazol-3-yl)propyl]pyrrolidin-3-yl]-5-methylbenzothiophene-2-sulphonamide]
Ki (5-HT2A receptor): 0.6 nM | inhibition at 1 µM [1]: 50% | inhibition at 1 µM (α2C adrenergic receptors): 98% | inhibition at 1 µM (5-HT7 receptor): 99% | inhibition at 1 µM (receptors D4.4): 86% | inhibition at 1 µM [2]: 101% | Ki [2]: 2.4 nM | inhibition at 1 µM [3]: 75%

Cn1ccc2cc(S(=O)(=O)NC3CCN(CCCc4noc5cc(F)ccc45)C3)ccc21 (centres unmarked) [Compound 218, N-[1-[3-(6-Fluoro-1,2-benzoxazol-3-yl)propyl]pyrrolidin-3-yl]-1-methyl-indole-5-sulphonamide]
inhibition at 1 µM (5-HT2A receptor): 100% | inhibition at 1 µM [1]: 95% | inhibition at 1 µM (α2C adrenergic receptors): 94% | inhibition at 1 µM (5-HT7 receptor): 98% | inhibition at 1 µM (receptors D4.4): 86% | inhibition at 1 µM [2]: 99% | inhibition at 1 µM [3]: 77%
